This note sets out measurements from patent publication EP4772634A1, “DOUBLE-STRANDED RNA TARGETING COAGULATION FACTOR XI” (Chia Tai Tianqing Pharmaceutical Group Co., Ltd., priority 2023, dated 2025).

The subject of this series is human coagulation factor XI protein. In words: In vivo activity in human coagulation factor XI model mice (Experimental Example 4), FXI protein by ELISA. The settings on record: female humanized homozygous mice, single subcutaneous 3 mg/kg. As for the experimental part: The humanized mice used in this experimental example were purchased from Cyagen Biosciences Co., Ltd. The female humanized homozygous mice were randomly divided into groups, with 4 mice per group. The compound and PBS control (pH = 7.2) were administered to each group of mice, respectively. The day of the first administration was designated as day 0 of the experiment. The corresponding compound solutions were administered via a single subcutaneous injection based on animal body weight, at an administration dose of 3 mg/kg. PBS control mice were each administered PBS, with an administration volume of 10 mL/kg body weight. Orbital blood was collected before administration and on day 3, day 7, day 14, day 21, day 28, day 42, day 56, and day 70 after administration. Serum was separated, and the content of the coagulation factor XI protein in the serum at each time point was measured using a Human Coagulation Factor XI ELISA kit (Thermo, Batch No. 2350072722, Cat. No. EH118RB).
The coagulation factor XI protein inhibition rate was calculated according to the following equation: [formula]
Table 13 lists the measurement of coagulation factor XI protein content in animal plasma before and on day 3, day 7, day 14, day 21, day 28, day 42, day 56, and day 70 after a single subcutaneous administration of siRNA ligand conjugates at a dose of 3 mg/kg to humanized homozygous mice. […] Table 13. In vivo experimental design

As to “TD02M02L01: dsRNA ligand conjugate: TD02M02 with L01 (GalNAc) ligand at 3' end of sense strand SEQ ID NO 35; antisense SEQ ID NO 36 (sense GGATGATTTTCTTATATCA; antisense TGATATAAGAAAATCATCCTG; GalNAc L01 ligand at sense 3' end, 2'-OMe/2'-F, pattern not given here)”, the “Relative inhibition rate (%) of FXI protein” value (from here on “Relative inhibition rate (%)”) (D3) came to 74.4%; the “Relative inhibition rate (%)” value (D7) was found to be 93.7%; the “Relative inhibition rate (%)” value (D14) was determined as 86.4%; the “Relative inhibition rate (%)” value (D21) came out at 88.0%; the “Relative inhibition rate (%)” value (D28) is 84.9%; the “Relative inhibition rate (%)” value (D42) came to 63.3%. Also, the “Relative inhibition rate (%)” value runs as follows: (D56) 50.4%; (D70) 21.4%.
